Assay [1] deals with LacA. The experiment in a line: oxidation monitored at […] nm, Lineweaver-Burk. It counts as biochemical, Cerrena unicolor. The note with it: optimal pH 5.5 and temperature 80°C; 0.5–10 mM 2,6-DMP; apparent Km.
The subject of assay [2] is LacA. Conditions: optimal pH 2.5 and temperature 60°C; 5–100 μM ABTS; apparent Km.
For assay [3], the system named is LacA. The experiment in a line: oxidation monitored at […] nm, Lineweaver-Burk. The note with it: optimal pH 4.0 and temperature 80°C; 0.5–5 mM guaiacol; apparent Km. The assay is classed as biochemical, Cerrena unicolor.
The target in assay [4] is Cerrena unicolor BBP6 laccase (LacA) (Cerrena unicolor BBP6). The experiment in a line: SEC; Superdex 200 Increase 10/300 GL, 10 mM phosphate buffer-140 mM NaCl (pH 7.4), 0.5 mL min^-1, room temperature; native mass compared with the subunit mass from SDS-PAGE. A general note: SEC sorts molecules by how far they enter the pores of the column.

Read-outs that look alike come from different tables or passages of the source.

For orientation: Km means the substrate concentration at which the rate is half of its maximum. `COc1cccc(OC)c1O` [2,6-DMP]: the Km in the assay with LacA [1] stood at 3.43 mM.

Regarding `CCn1c(=NN=c2sc3cc(S(=O)(=O)O)ccc3n2CC)sc2cc(S(=O)(=O)O)ccc21` [ABTS], the Km in the assay with LacA [2] came to 49.1 µM.

Regarding `COc1ccccc1O` [guaiacol], the Km with LacA [3] came to 1.24 mM.

As a reminder, the stoichiometry N is the number of molecules, sites or subunits per partner or assembly. As to “Cerrena unicolor BBP6 laccase (LacA) (enzyme)”, the stoichiometry N in assay [4] worked out at 2.
